Experimental data reported in US6297230A, “Cyanoaziridines for treating cancer” (priority 2000, dated 2001).

Experiments:
[1] = tested on: Human 8226 myeloma tumors; test: Antitumor efficacy in SCID mice bearing human 8226 myeloma tumors (40-fold doxorubicin resistant); assay type: in vivo, human tumor xenograft in SCID mice
Text: Testing for Antitumor Efficacy in Mice with Severe Combined Immunodeficiency Disease (SCID)
The SCID mouse represents an autosomal recessive mutation in an inbred strain of […] mice which renders the animals profoundly immunodeficient and able to accept tissue xenografts from rats, humans or other strains of mice. (Ware, et al., J Immunol Methods 85:353-361, 1985.) The immunologic defect results from an inability to carry out normal immunoglobulin and T-cell receptor recombination reactions during the development of T- and B-lymphocytes. This renders mice with very low levels of T- and B-cells, and low levels of antibody production which allows foreign (allogeneic or xenogeneic) tissue grafts to grow in vivo. […] (Phillips, et al., Curr Top Microbiol Immunol 152:259-263, 1989.) Compared to athymic nude mice, SCID mice accept more tumor tissue types and breed more efficiently. (Phillips, et al., Curr Top Microbiol Immunol 152:259-263, 1989.) The SCID mice are also more sensitive to ionizing radiation (Budach, et al., Cancer Res 52(22):6292-6296, 1992) due to a defect in DNA double strand break repair. (Chang, et al., Cancer Res 53:1244-1248, 1993.) Because some SCID mice can spontaneously revert to a more normal phenotype, serum immunoglobulin […] (IgG) levels are routinely measured and if elevated (leaky phenotype syndrome), the mouse is excluded from further study.
(§1) The SCID mouse colony is maintained in a barrier facility with specially filtered air, autoclaved (sterilized) food and water and protective handling precautions (gloves, mask, gown) to prevent inadvertent infection. For tumor studies, human tumor cells are grown in vitro, harvested, counted and injected subcutaneously into the front flank area. Tumor cell innocula range from 10^6 -2×10^7 cells/mouse. Palpable tumors begin to develop after 1-3 weeks and sizes are determined by caliper measure of the widest perpendicular diameters. These dimensions are converted to mass using the formula:
wherein W=the shorter of the two dimensions and L=the longer diameter value.
Tumor growth rates are plotted as mass (g) per days after inoculation.
Drug treatments are given by intravenous (IV) or intraperitoneal (IP) injection beginning 24 hours after tumor implantation (day 1). […] Drug therapy began 1 day later with AMP-404 dissolved in a water-miscible co-solvent system containing (per mL): benzyl alcohol 30 mg; polysorbate 80 mw, 80 mg; polyethylene glycol 300 mw, 650 mg; and q.s. to 1.0 mL in absolute ethanol. The daily dose was either 50 mg/kg or 100 mg/kg. […]

[2] = Body weight and lethality in SCID mice treated with AMP-404; assay type: in vivo
Procedure: as §1, with “formula: […]” for “formula:”
Drug treatments are given by intravenous (IV) or intraperitoneal (IP) injection beginning 24 hours after tumor implantation (day 1). […] Drug therapy began 1 day later with AMP-404 dissolved in a water-miscible co-solvent system containing (per mL): benzyl alcohol 30 mg; polysorbate 80 mw, 80 mg; polyethylene glycol 300 mw, 650 mg; and q.s. to 1.0 mL in absolute ethanol. The daily dose was either 50 mg/kg or 100 mg/kg. Therapy was continued daily for […] and tumors were measured three times per week up to the 7 week ending period (two weeks after stopping drug therapy).

SMILES: N#CC1CN1C(=O)Nc1ccccc1 (stereo not shown) [AMP 404, 2-Cyanoaziridine-1-(N-phenyl)carboxamide]
- Antitumor effect ([1]; 50 mg/kg daily): not active
- Mean (SD) tumor volume ([1]; 50 mg/kg daily, Week 3): 104.2 (78.6) mm^3
- Mean (SD) tumor volume ([1]; 50 mg/kg daily, Week 4): 247.9 (225.9) mm^3
- Mean (SD) tumor volume ([1]; 50 mg/kg daily, Week 5): 574.2 (296.2) mm^3
- Mean (SD) tumor volume ([1]; 50 mg/kg daily, Week 6): 1,020 (396.2) mm^3
- Mean (SD) tumor volume ([1]; 50 mg/kg daily, Week 7): 1,858.4 (941.4) mm^3
- Mean reduction in tumor volume ([1]; 100 mg/kg): 50%
- Mean (SD) tumor volume ([1]; 100 mg/kg daily, Week 3, P-value .005 vs control): 32.9 (17.9) mm^3
- Mean (SD) tumor volume ([1]; 100 mg/kg daily, Week 4, P-value .068 vs control): 104.9 (81.8) mm^3
- Mean (SD) tumor volume ([1]; 100 mg/kg daily, Week 5, P-value .229 vs control): 312.5 (195.5) mm^3
- Mean (SD) tumor volume ([1]; 100 mg/kg daily, Week 6, P-value .100 vs control): 357.3 (314.5) mm^3
- Mean (SD) tumor volume ([1]; 100 mg/kg daily, Week 7, P-value 0.19 vs control): 824.5 (793.7) mm^3
- Tumor size at end of 6 week experiment ([1]; 100 mg/kg, control approximately 1,000 mm^3): approximately 300 mm^3
- Onset of developing palpable tumors ([1]; after inoculation): 3 weeks
- Tumor take rate (% of inoculated mice developing palpable tumors) ([1]; all 3 groups): 100%
- Antitumor activity in vivo ([1]; multidrug-resistant human myeloma, SCID mice): active against multidrug-resistant human myeloma cells in vivo
- Weight loss ([2]; 50 mg/kg daily): no apparent weight loss
- Mean body weight loss compared to control ([2]; 100 mg/kg daily): 15-20%
- Drug-induced lethality ([2]; mouse, in vivo): no drug-induced lethality
